The target of the first assay is T1, Kv1.3 potassium channel (Homo sapiens, UniProt P22001).
T1 construct: expressed in transfected cells
T1 sequence (P22001 whole entry): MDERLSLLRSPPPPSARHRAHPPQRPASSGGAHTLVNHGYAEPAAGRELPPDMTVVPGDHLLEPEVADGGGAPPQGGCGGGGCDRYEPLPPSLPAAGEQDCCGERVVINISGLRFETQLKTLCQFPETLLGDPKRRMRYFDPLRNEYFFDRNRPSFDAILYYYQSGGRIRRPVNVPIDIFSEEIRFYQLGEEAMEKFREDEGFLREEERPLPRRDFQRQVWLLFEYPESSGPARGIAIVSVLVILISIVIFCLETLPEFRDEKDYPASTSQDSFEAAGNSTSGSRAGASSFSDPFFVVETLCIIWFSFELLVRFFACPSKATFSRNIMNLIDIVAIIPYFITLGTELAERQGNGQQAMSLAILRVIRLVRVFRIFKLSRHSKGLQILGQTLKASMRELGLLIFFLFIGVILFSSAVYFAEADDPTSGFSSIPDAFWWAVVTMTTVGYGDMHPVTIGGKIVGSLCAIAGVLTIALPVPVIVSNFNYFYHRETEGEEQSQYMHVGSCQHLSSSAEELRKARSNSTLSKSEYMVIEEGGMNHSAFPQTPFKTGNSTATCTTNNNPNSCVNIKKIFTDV
Description: Kv1.3 potassium channel blocker activity, automated whole-cell patch clamp (Patchliner) in CHO-K1 cells stably expressing Kv1.3. It counts as cell-based.
Conditions: not given
The procedure:
Example 82. Evaluation of Kv1.3 potassium channel blocker activities
This assay is used to evaluate the disclosed compounds' activities as Kv1.3 potassium channel blockers.
CHO-K1 cells stably expressing Kv1.3 were grown in DMEM containing 10% heat-inactivated FBS, 1 mM sodium pyruvate, 2 mM L-glutamine, and G418 (500 μg/ml).
All compounds were dissolved in DMSO at 30 mM.
The currents were evoked by applying 100 ms depolarizing pulses from −90 mV (holding potential) to +40 mV were applied with 0.1 Hz frequency. […] 10-second breaks were used between pulse trains (see Table A below).
Data were sampled at 10 kHz without filtering. Passive leak currents were subtracted online using a P/4 procedure (HEKA Elektronik Dr. Schulze GmbH). […] Total compound incubation time before the next pulse train was not longer than 10 seconds. Peak current inhibition was observed during compound equilibration.
A general note: In patch-clamp work, channel activity is measured electrically.
As to `Oc1cc(Cl)c(Cl)cc1C1=CC2CCC(C1)N2` (stereo not shown) [Compound 17, 2-[8-azabicyclo[3.2.1]oct-2-en-3-yl]-4,5-dichlorophenol], the IC50 (usually the midpoint of a concentration-inhibition curve) is less than 10 µM.
`N#CC1(c2cc(Cl)c(Cl)cc2O)CCNCC1` [Compound 13, 4-(4,5-dichloro-2-hydroxyphenyl)piperidine-4-carbonitrile] gave an IC50 of less than 10 µM.
In turn, `Oc1cc(Cl)c(Cl)cc1[C@H]1C[C@H]2CC[C@@H](C1)N2` (single isomer, unassigned; isomer 2) [Compound 11, 2-[8-azabicyclo[3.2.1]octan-3-yl]-4,5-dichlorophenol isomer 2] returned an IC50 of less than 10 µM.
The same measure, in the same setting: then `Oc1cc(Cl)c(Cl)cc1[C@@H]1C[C@H]2CC[C@@H](C1)N2` (single isomer, unassigned; isomer 1) [Compound 15, 2-[8-azabicyclo[3.2.1]octan-3-yl]-4,5-dichlorophenol isomer 1], with less than 10 µM.

Staying with this assay, now noted: CHO-K1 cells stably expressing Kv1.3; patch clamp, current inhibition; read-out: Kv1.3 IC50.
Consider `NC[C@H]1CNCC[C@H]1c1cc(Cl)c(Cl)cc1O` (relative stereo) [Compound 47, (3R,4S)-rel-2-[3-(aminomethyl)piperidin-4-yl]-4,5-dichlorophenol], for which the IC50 is less than 30 µM.
Still for that read-out and setting: the result for `O=C(C1CC(c2c(O)ccc(Cl)c2Cl)CCN1)N1CCNCC1` (stereo not shown) [Compound 75, 3,4-dichloro-2-[2-(piperazine-1-carbonyl)piperidin-4-yl]phenol] reads less than 10 µM; that for `NC(=O)[C@@H]1CNCC[C@@H]1c1cc(Cl)c(Cl)cc1O` (single isomer, unassigned) [Compound 56], less than 10 µM.
On the same count and under the same terms, the result for `Oc1cc(Cl)c(Cl)c(Cl)c1C1=CCNCC1` [Compound 46, 3,4,5-trichloro-2-(1,2,3,6-tetrahydropyridin-4-yl)phenol] reads less than 10 µM; that for `N[C@@H]1CNCC[C@H]1c1cc(Cl)c(Cl)cc1O` (relative stereo) [Compound 49, (3R,4R)-rel-2-(3-aminopiperidin-4-yl)-4,5-dichlorophenol], less than 10 µM; that for `NC(=O)[C@H]1CN(c2c(O)ccc(Cl)c2Cl)CCN1` [Compound 90, (2R)-4-(2,3-dichloro-6-hydroxyphenyl)piperazine-2-carboxamide], less than 10 µM.
Turning to `O=C(NC1CNC1)[C@@H]1CN[C@H](c2c(O)ccc(Cl)c2Cl)C1` (single isomer, unassigned) [Compound 123], the IC50 is less than 10 µM.
Still for that read-out and setting: the result for `NC(=O)[C@@H]1CN(c2c(O)ccc(Cl)c2Cl)CCN1` [Compound 92] reads less than 10 µM; that for `NC(=O)[C@H]1CNCC[C@@H]1c1cc(Cl)c(Cl)cc1O` (relative stereo) [Compound 50, (3R,4S)-rel-4-(4,5-dichloro-2-hydroxyphenyl)piperidine-3-carboxamide], less than 10 µM.
In the case of `O=C(NC1CNC1)C1CN[C@@H](c2c(O)ccc(Cl)c2Cl)C1` (single isomer, unassigned) [Compound 121], the 50% inhibitory concentration (IC50) is less than 1 µM.
In the case of `COC(=O)[C@@H]1CNC[C@H]1c1cc(Cl)c(Cl)cc1O` (relative stereo) [Compound 53, (3R,4S)-rel-methyl 4-(4,5-dichloro-2-hydroxyphenyl)pyrrolidine-3-carboxylate], the IC50 is less than 10 µM.
As for `NC(=O)[C@@H]1CNC[C@H]1c1cc(Cl)c(Cl)cc1O` (relative stereo) [Compound 52, (3R,4S)-rel-4-(4,5-dichloro-2-hydroxyphenyl)pyrrolidine-3-carboxamide], the 50% inhibitory concentration (IC50) is less than 10 µM.
Same read-out and setting: then `Nc1nnc([C@H]2C[C@@H](c3c(O)ccc(Cl)c3Cl)CCN2)o1` (relative stereo) [Compound 103, 2-((2R,4S)-rel-2-(5-amino-1,3,4-oxadiazol-2-yl)piperidin-4-yl)-3,4-dichlorophenol], with less than 10 µM; and `O=C(NC1CNC1)[C@@H]1CC[C@H](c2c(O)ccc(Cl)c2Cl)N1` (single isomer, unassigned) [Compound 119], with less than 10 µM; and `CN(C)C(=O)[C@H]1C[C@@H](c2c(O)ccc(Cl)c2Cl)CCN1` (relative stereo) [Compound 77, (2R,4S)-rel-4-(2,3-dichloro-6-hydroxyphenyl)-N,N-dimethylpiperidine-2-carboxamide], with less than 10 µM.
Same read-out and setting: then `Oc1cccc(Cl)c1C1CCNCC1` [Compound 66, 3-chloro-2-(piperidin-4-yl)phenol], with less than 10 µM; and `Cc1ccc(O)c(C2CCNCC2)c1Cl` [Compound 71, 3-chloro-4-methyl-2-(piperidin-4-yl)phenol], with less than 30 µM; and `Oc1cc(Cl)c(Cl)cc1[C@@H]1CCNC[C@H]1O` (relative stereo) [Compound 7, (3R,4R)-rel-4-(4,5-dichloro-2-hydroxyphenyl)piperidin-3-ol], with less than 10 µM.
Still for that read-out and setting: then `Oc1cc(Cl)c(Cl)cc1C1CNC1` [Compound 22, 2-(azetidin-3-yl)-4,5-dichlorophenol], with less than 10 µM; and `Oc1ccc(C2CC2)c(Cl)c1C1CCNCC1` [Compound 69, 3-chloro-4-cyclopropyl-2-(piperidin-4-yl)phenol], with less than 30 µM.
As for `CC1(c2cc(Cl)c(Cl)cc2O)CCNCC1` [Compound 1, 4,5-dichloro-2-(4-methylpiperidin-4-yl)phenol], the half-maximal inhibitory concentration (IC50) was less than 10 µM.
As for `O=C(NC1CNC1)[C@H]1CN[C@H](c2c(O)ccc(Cl)c2Cl)C1` (single isomer, unassigned) [Compound 124], the IC50 is less than 1 µM.
Consider `NC(=O)[C@H]1CN(c2c(O)cc(Cl)c(Cl)c2Cl)CCN1` [Compound 96, (2R)-4-(2,3,4-trichloro-6-hydroxyphenyl)piperazine-2-carboxamide], for which the IC50 is less than 1 µM.
On to `O=C(NC1CNC1)[C@@H]1CC[C@@H](c2c(O)ccc(Cl)c2Cl)N1` (single isomer, unassigned) [Compound 120], for which the IC50 is less than 10 µM.
Same read-out and setting: then `O=C(NC1CNC1)[C@H]1CCC(c2c(O)ccc(Cl)c2Cl)N1` (single isomer, unassigned) [Compound 117], with less than 30 µM; and `Oc1cc(Cl)c(Cl)cc1N1CCCNCC1` [Compound 37, 4,5-dichloro-2-(1,4-diazepan-1-yl)phenol], with less than 10 µM.
As to `O=C1NCCC12CC(c1c(O)ccc(Cl)c1Cl)CCN2` (stereo not shown) [Compound 87, 9-(2,3-dichloro-6-hydroxyphenyl)-2,6-diazaspiro[4.5]decan-1-one], the IC50 was less than 10 µM.
Still for that read-out and setting: then `Oc1cc(Cl)c(Cl)cc1C1CCNCC1n1ccnn1` (stereo not shown) [Compound 62, 4,5-dichloro-2-[3-(1H-1,2,3-triazol-1-yl)piperidin-4-yl]phenol], with less than 10 µM; and `CC1(C(N)=O)CC(c2c(O)ccc(Cl)c2Cl)CCN1` (stereo not shown) [Compound 83, 4-(2,3-dichloro-6-hydroxyphenyl)-2-methylpiperidine-2-carboxamide], with less than 10 µM; and `O=C([C@H]1C[C@@H](c2c(O)ccc(Cl)c2Cl)CCN1)N1CCOCC1` (relative stereo) [Compound 80, (2R,4S)-rel-3,4-dichloro-2-[2-(morpholine-4-carbonyl)piperidin-4-yl]phenol], with less than 10 µM.
Same read-out and setting: the result for `N[C@H]1CNCC[C@H]1c1cc(Cl)c(Cl)cc1O` (relative stereo) [Compound 51, (3R,4S)-rel-2-(3-aminopiperidin-4-yl)-4,5-dichlorophenol] reads less than 10 µM; that for `O=S(=O)(C1CCNC1)N1CCC(c2c(O)cc(Cl)c(Cl)c2Cl)CC1` (stereo not shown) [Compound 95, 3,4,5-trichloro-2-[1-(pyrrolidine-3-sulfonyl)piperidin-4-yl]phenol], less than 10 µM; that for `OC[C@@H]1C[C@H](c2cc(Cl)c(Cl)cc2O)CCN1` (single isomer, unassigned) [Compound 35], less than 10 µM.
Take `O=C([C@H]1C[C@H](c2c(O)ccc(Cl)c2Cl)CCN1)N1CCOCC1` (relative stereo) [Compound 76, (2R,4R)-rel-3,4-dichloro-2-[2-(morpholine-4-carbonyl)piperidin-4-yl]phenol]: the half-inhibitory concentration (IC50) was less than 10 µM.
Take `Oc1cc(C(F)(F)F)c(Cl)cc1C1CCNCC1` [Compound 29, 4-chloro-2-(piperidin-4-yl)-5-(trifluoromethyl)phenol]: the concentration for half-maximal inhibition (IC50) was less than 10 µM.
On to `CN(C)C(=O)[C@H]1C[C@H](c2c(O)ccc(Cl)c2Cl)CCN1` (relative stereo) [Compound 82, (2R,4R)-rel-4-(2,3-dichloro-6-hydroxyphenyl)-N,N-dimethylpiperidine-2-carboxamide], for which the concentration for half-maximal inhibition (IC50) was less than 10 µM.
With `OCC1(c2cc(Cl)c(Cl)cc2O)CCNCC1` [Compound 26, 4,5-dichloro-2-[4-(hydroxymethyl)piperidin-4-yl]phenol], the 50% inhibitory concentration (IC50) was less than 10 µM.
Same read-out and setting: then `NC(=O)C1CNC[C@H]1c1cc(Cl)c(Cl)cc1O` (stereo in doubt) [Compound 64, (3R,4R)-rel-4-(4,5-dichloro-2-hydroxyphenyl)pyrrolidine-3-carboxamide], with less than 10 µM.
The same measure, in the same setting: then `Oc1cc(C(F)F)c(Cl)cc1C1CCNCC1` [Compound 41, 4-chloro-5-(difluoromethyl)-2-(piperidin-4-yl)phenol], with less than 10 µM; and `NC1(CO)CCN(c2cc(Cl)c(Cl)cc2O)CC1` [Compound 33, 2-[4-amino-4-(hydroxymethyl)piperidin-1-yl]-4,5-dichlorophenol], with less than 10 µM; and `NC(=O)[C@H]1CNCC[C@H]1c1cc(Cl)c(Cl)cc1O` (single isomer, unassigned) [Compound 58], with less than 1 µM.
On to `NC(=O)C1CCCN(c2c(O)ccc(Cl)c2Cl)C1` (stereo not shown) [Compound 88, 1-(2,3-dichloro-6-hydroxyphenyl)piperidine-3-carboxamide], for which the concentration for half-maximal inhibition (IC50) was less than 10 µM.
